Results on one molecule are retold here after patent US6462038B1, “Androgen receptor modulator compounds and methods” (Ligand Pharmaceuticals, Inc., priority 1999, dated 2002).

Type in all cases: cell-based
For one test, the target named is T1, MR (Homo sapiens, UniProt P08235).
T1 construct: expressed in transfected cells; host or cells: CV-1 cells
T1 sequence (P08235 1-984): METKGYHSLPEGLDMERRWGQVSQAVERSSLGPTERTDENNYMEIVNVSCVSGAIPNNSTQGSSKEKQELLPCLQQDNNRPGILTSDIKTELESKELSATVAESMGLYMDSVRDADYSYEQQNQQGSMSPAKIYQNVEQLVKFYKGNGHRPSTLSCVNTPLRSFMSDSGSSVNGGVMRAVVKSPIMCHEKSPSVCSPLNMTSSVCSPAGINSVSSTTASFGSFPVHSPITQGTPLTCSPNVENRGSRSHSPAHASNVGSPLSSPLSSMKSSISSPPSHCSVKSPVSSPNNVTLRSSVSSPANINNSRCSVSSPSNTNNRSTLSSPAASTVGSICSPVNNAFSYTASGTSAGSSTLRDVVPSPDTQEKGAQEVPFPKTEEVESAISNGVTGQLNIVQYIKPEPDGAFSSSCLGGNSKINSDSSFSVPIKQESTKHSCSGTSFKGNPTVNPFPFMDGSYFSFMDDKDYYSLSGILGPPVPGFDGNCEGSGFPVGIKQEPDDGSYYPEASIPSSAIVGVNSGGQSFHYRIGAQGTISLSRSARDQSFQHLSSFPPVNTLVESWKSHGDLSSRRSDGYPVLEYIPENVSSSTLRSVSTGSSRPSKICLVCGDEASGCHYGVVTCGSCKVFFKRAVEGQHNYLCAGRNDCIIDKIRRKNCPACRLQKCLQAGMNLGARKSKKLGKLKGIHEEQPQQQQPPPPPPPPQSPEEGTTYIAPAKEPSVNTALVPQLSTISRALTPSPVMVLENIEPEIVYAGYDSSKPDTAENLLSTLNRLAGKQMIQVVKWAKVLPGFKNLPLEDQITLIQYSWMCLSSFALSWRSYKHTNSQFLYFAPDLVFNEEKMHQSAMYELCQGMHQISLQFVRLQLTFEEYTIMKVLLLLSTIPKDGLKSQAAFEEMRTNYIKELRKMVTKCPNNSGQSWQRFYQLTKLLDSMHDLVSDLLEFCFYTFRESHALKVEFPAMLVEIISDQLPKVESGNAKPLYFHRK
The test can be described thus: co-transfection assay, MR antagonist. Here is the method:
(§1) CV-1 cells (African green monkey kidney fibroblasts) were cultured in the presence of Dulbecco's Modified Eagle Medium (DMEM) supplemented with 10% charcoal resin-stripped fetal bovine serum (CH-FBS) then transferred to 96-well microtiter plates one day prior to transfection.
(§2) Three to four replicates were used for each sample.
(§3) After 40 hours, the cells were washed with PBS, lysed with a Triton X-100-based buffer and assayed for LUC and β-Gal activities using a luminometer or spectrophotometer, respectively. For each replicate, the normalized response (NR) was calculated as: […]

The target in the next test is T2, GR (Homo sapiens, UniProt P04150).
T2 construct: expressed in transfected cells; host or cells: CV-1 cells
T2 sequence (P04150 1-777): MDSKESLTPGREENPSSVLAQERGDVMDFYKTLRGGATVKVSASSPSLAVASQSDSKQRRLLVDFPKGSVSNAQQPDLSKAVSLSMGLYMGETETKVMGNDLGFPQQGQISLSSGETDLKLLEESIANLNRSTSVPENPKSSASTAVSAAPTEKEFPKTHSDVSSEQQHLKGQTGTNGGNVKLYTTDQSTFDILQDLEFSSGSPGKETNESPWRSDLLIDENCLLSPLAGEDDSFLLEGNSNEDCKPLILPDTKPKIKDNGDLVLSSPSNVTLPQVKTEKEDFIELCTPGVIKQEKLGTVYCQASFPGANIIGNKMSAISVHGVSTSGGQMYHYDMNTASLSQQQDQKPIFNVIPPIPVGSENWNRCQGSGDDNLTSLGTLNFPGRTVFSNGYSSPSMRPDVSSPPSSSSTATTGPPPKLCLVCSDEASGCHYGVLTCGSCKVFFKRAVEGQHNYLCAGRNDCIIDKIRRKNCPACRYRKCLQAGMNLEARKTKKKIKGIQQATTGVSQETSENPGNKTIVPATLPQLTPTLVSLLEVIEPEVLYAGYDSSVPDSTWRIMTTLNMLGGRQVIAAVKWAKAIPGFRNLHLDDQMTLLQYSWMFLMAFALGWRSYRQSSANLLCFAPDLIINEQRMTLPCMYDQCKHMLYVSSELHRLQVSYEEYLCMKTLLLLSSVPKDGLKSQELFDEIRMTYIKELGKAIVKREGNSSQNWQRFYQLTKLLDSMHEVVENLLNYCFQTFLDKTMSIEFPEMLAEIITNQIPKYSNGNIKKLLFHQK
The test is described as follows: co-transfection assay, GR antagonist. Here is the method:
as §1, §2, §3

Test [1] deals with T3, PR (Homo sapiens, UniProt P06401).
T3 construct: expressed in transfected cells; host or cells: CV-1 cells
T3 sequence (P06401 1-933): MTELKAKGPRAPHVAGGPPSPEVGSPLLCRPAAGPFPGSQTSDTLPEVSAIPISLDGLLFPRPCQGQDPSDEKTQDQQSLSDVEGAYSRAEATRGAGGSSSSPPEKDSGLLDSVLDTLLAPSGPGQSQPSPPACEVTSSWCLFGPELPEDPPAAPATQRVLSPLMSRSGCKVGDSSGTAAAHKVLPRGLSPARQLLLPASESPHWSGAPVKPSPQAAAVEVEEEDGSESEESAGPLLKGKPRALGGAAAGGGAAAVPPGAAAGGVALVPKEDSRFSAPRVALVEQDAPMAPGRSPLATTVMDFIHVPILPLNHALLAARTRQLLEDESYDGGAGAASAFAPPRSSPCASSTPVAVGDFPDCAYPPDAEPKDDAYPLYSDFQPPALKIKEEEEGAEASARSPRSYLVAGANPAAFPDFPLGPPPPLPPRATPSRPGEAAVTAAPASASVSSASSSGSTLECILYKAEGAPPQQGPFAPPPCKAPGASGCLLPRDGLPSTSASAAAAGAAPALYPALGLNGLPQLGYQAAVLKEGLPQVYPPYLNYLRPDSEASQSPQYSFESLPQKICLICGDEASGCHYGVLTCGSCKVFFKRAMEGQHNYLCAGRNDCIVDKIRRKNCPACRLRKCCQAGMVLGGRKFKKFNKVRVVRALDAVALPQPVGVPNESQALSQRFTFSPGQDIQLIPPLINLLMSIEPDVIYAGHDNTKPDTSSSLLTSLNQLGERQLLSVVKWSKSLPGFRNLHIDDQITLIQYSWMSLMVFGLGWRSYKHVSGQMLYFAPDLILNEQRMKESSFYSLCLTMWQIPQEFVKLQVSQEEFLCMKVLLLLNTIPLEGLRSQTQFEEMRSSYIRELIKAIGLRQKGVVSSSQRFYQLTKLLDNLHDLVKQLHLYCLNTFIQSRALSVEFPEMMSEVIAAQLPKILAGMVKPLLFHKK
The test is described as follows: co-transfection assay, PR antagonist (in presence of progesterone). The method, then:
as §1, §2, §3

The target in test [2] is T4, ER (Homo sapiens, UniProt P03372).
T4 construct: expressed in transfected cells; host or cells: CV-1 cells
T4 sequence (P03372 whole entry): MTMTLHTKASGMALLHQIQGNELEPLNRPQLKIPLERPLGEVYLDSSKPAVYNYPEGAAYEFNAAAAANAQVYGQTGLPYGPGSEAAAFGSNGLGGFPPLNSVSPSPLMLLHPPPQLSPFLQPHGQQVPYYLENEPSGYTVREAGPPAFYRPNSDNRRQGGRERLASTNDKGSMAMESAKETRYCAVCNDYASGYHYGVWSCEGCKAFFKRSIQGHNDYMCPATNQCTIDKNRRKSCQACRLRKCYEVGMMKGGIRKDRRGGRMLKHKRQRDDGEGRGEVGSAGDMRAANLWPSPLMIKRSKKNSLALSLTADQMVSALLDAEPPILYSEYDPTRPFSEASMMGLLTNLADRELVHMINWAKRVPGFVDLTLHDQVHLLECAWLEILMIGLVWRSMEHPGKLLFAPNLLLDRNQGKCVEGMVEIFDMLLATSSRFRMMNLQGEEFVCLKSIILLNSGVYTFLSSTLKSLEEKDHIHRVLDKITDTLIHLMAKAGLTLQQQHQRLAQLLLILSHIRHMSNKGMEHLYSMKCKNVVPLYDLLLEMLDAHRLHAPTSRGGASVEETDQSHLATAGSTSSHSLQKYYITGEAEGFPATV
The test is described as follows: co-transfection assay, ER agonist. Here is the method:
as §1, §2, §3

Test [3] deals with T4, ER. The test is described as follows: co-transfection assay, ER antagonist. The method, then:
as §1, §2, §3

Test [4] has as its target T3, PR. The test can be described thus: co-transfection assay, PR agonist. The method, then:
as §1, §2, §3

Each structure is given as a SMILES string. Where only a bound is given, the exact number is not on record here.

With `O=c1cc(C(F)(F)F)c2cc3c(cc2[nH]1)OCCN3CC1CC1` [Compound 121, 1-Cyclopropylmethyl-1,2,3,6-tetrahydro-9-(trifluoromethyl)-7H-[1,4]oxazino[3,2-g]quinolin-7-one], the IC50 – broadly, the concentration at which inhibition is half-maximal – on MR is 2.57 µM; against GR, 1.05 µM; at PR [1], 0.415 µM; at ER [3], more than 10 µM. In addition, the EC50 at ER [2] and at PR [4] was more than 10 µM in each case.
